Reference: patent US20260200850A1, “CRYSTALLINE FORMS OF A PIPERIDINE INHIBITOR OF SLC6A19 FUNCTION” (Jnana Therapeutics Inc., priority 2022, published 2026)
Values after ≈ are worked out from the molar mass of the structure shown. Values belong to the compound of their own block, whether it stands above or below them.

Assay: Solubility measurements of polymorphic Form I and II in biorelevant fluids
Format: physicochemical
Details: for solubility at 1.5 h / solubility at 3 h / solubility at 24 h: thermodynamic from solid
Description: Example 3: Solubility Measurements of Form I and Form II

solubility at 1.5 h (5% HPBCD/2% TPGS, 25 °C, aqueous with cosolvent or surfactant or cyclodextrin, 1.5 h): 4960 µg/mL (≈ 11900 µM)
solubility at 3 h (5% HPBCD/2% TPGS, 25 °C, aqueous with cosolvent or surfactant or cyclodextrin, 3 h): 5110 µg/mL (≈ 12200 µM)
solubility at 24 h (5% HPBCD/2% TPGS, 25 °C, aqueous with cosolvent or surfactant or cyclodextrin, 24 h): 5280 µg/mL (≈ 12600 µM)
solubility at 1.5 h (FaSSIF, 37 °C, 1.5 h): 360 µg/mL (≈ 860 µM)
solubility at 3 h (FaSSIF, 37 °C, 3 h): 380 µg/mL (≈ 908 µM)
solubility at 24 h (FaSSIF, 37 °C, 24 h): 350 µg/mL (≈ 837 µM)
Solubility (FeSSIF, 37° C., 1.5 h): 910 µg/mL (≈ 2170 µM)
Solubility (FeSSIF, 37° C., 3 h): 900 µg/mL (≈ 2150 µM)
Solubility (FeSSIF, 37° C., 24 h): 980 µg/mL (≈ 2340 µM)
solubility at 1.5 h (SGF, 37 °C, simulated gastric fluid, 1.5 h): 400 µg/mL (≈ 956 µM)
solubility at 3 h (SGF, 37 °C, simulated gastric fluid, 3 h): 420 µg/mL (≈ 1000 µM)
solubility at 24 h (SGF, 37 °C, simulated gastric fluid, 24 h): 370 µg/mL (≈ 884 µM)
Solubility, comparison of the forms (relevant biofluids, in words): increased solubility relative to Form II
Structure (SMILES): NC(=O)N1CCC[C@@H](N(C(=O)NCc2ccc(OC(F)(F)F)cc2F)C2CC2)C1 [Form I, (R)-3-(1-cyclopropyl-3-(2-fluoro-4-(trifluoromethoxy)benzyl)ureido) piperidine-1-carboxamide]

Solubility (5% HPBCD/2% TPGS, 25° C., 1.5 h): 4310 µg/mL (≈ 10300 µM)
Solubility (5% HPBCD/2% TPGS, 25° C., 3 h): 4270 µg/mL (≈ 10200 µM)
Solubility (5% HPBCD/2% TPGS, 25° C., 24 h): 4760 µg/mL (≈ 11400 µM)
Solubility (FaSSIF, 37° C., 1.5 h): 310 µg/mL (≈ 741 µM)
Solubility (FaSSIF, 37° C., 3 h): 270 µg/mL (≈ 645 µM)
Solubility (FaSSIF, 37° C., 24 h): 240 µg/mL (≈ 574 µM)
solubility at 1.5 h (FeSSIF, 37 °C, 1.5 h): 740 µg/mL (≈ 1770 µM)
solubility at 3 h (FeSSIF, 37 °C, 3 h): 720 µg/mL (≈ 1720 µM)
solubility at 24 h (FeSSIF, 37 °C, 24 h): 720 µg/mL (≈ 1720 µM)
Solubility (SGF, 37° C., 1.5 h): 260 µg/mL (≈ 621 µM)
Solubility (SGF, 37° C., 3 h): 270 µg/mL (≈ 645 µM)
Solubility (SGF, 37° C., 24 h): 300 µg/mL (≈ 717 µM)
Structure (SMILES): NC(=O)N1CCC[C@@H](N(C(=O)NCc2ccc(OC(F)(F)F)cc2F)C2CC2)C1 [Form II, (R)-3-(1-cyclopropyl-3-(2-fluoro-4-(trifluoromethoxy)benzyl)ureido) piperidine-1-carboxamide]
